Test results as given in ChEMBL document CHEMBL3098036, “Sulfonamide inhibition studies of the δ-carbonic anhydrase from the diatom Thalassiosira weissflogii” (Bioorg Med Chem Lett, 2014).

Molecular target: T1, Delta carbonic anhydrase (Conticribra weissflogii, UniProt Q5U9J1)
T1 sequence (Q5U9J1 whole entry): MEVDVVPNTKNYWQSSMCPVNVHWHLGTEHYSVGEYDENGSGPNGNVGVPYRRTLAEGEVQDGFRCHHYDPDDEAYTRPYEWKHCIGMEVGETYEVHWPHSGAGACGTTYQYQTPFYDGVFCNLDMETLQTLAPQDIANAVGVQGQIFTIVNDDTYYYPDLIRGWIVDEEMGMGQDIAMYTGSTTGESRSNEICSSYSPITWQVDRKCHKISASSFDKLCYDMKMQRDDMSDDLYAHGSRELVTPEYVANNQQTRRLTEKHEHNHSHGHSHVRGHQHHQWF

| SMILES | Ki |
| --- | --- |
| NS(=O)(=O)c1ccc(CCNS(=O)(=O)c2ccc([N+](=O)[O-])cc2CO)cc1 | 7880 nM |
| NS(=O)(=O)c1cccc(S(N)(=O)=O)c1 | 424 nM |
| NS(=O)(=O)c1cc(Cl)cc(Cl)c1O | 762 nM |
| Nc1nnc(S(N)(=O)=O)s1 | 10600 nM |
| Nc1ccc(S(=O)(=O)NCc2ccc(S(N)(=O)=O)cc2)cc1 | 897 nM |
| Nc1ccc(S(=O)(=O)Nc2nnc(S(N)(=O)=O)s2)cc1 | 12400 nM |
| Nc1ccc(S(=O)(=O)Nc2ccc(S(N)(=O)=O)cc2)cc1 | 3740 nM |
| Nc1nccc(Nc2ccc(S(N)(=O)=O)cc2)n1 | 615 nM |
| Nc1ccc(S(N)(=O)=O)cc1Br | 94.6 nM |
| Cn1nc(S(N)(=O)=O)sc1=N | 5530 nM |
| NS(=O)(=O)c1ccc(CCO)cc1 | 4700 nM |
| Nc1cccc(S(N)(=O)=O)c1 | 295 nM |
| NS(=O)(=O)c1ccc(CO)cc1 | 15200 nM |
| Nc1ccc(S(N)(=O)=O)cc1Cl | 167 nM |
| Nc1ccc(S(=O)(=O)NCCc2ccc(S(N)(=O)=O)cc2)cc1 | 862 nM |
| NS(=O)(=O)c1ccc(S(=O)(=O)Nc2cccc3c(Cl)c[nH]c23)cc1 | 375 nM |
| NS(=O)(=O)c1nnc(NS(=O)(=O)c2ccccc2)s1 [BENZOLAMIDE] | 394 nM |
| CCN[C@H]1CN(CCCOC)S(=O)(=O)c2sc(S(N)(=O)=O)cc21 [BRINZOLAMIDE] | 118 nM |
| NS(=O)(=O)c1ccc(C(=O)O)cc1 [CARZENIDE] | 871 nM |
| Cc1ccc(-c2cc(C(F)(F)F)nn2-c2ccc(S(N)(=O)=O)cc2)cc1 [CELECOXIB] | 265 nM |
| NS(=O)(=O)c1cc(Cl)c(Cl)c(S(N)(=O)=O)c1 [DICHLORPHENAMIDE] | 458 nM |
| NCc1ccc(S(N)(=O)=O)cc1 [MAFENIDE] | 424 nM |
| CC(=O)/N=c1/sc(S(N)(=O)=O)nn1C [METHAZOLAMIDE] | 170 nM |
| Cc1ccc(S(N)(=O)=O)cc1 [P-TOLUENESULFONAMIDE] | 424 nM |
| O=C1NS(=O)(=O)c2ccccc21 [SACCHARIN] | 9200 nM |
| CC1(C)O[C@@H]2[C@@H](CO[C@@]3(COS(N)(=O)=O)OC(C)(C)O[C@@H]23)O1 [TOPIRAMATE] | 392 nM |
| NS(=O)(=O)Cc1noc2ccccc12 [ZONISAMIDE] | 404 nM |
